These results are taken from patent US5244661A, “Process for producing a polyene antibiotic” (Ajinomoto Company, Inc., priority 1989, dated 1993).

The subject of assay [1] is Candida albicans ATCC 10231. In words: minimum growth inhibitory concentration (MIC) against Candida albicans ATCC 10231. Format: cell-based.
For assay [2], the system named is Saccharomyces ubran ATCC 9080. In words: minimum growth inhibitory concentration (MIC) against Saccharomyces ubran ATCC 9080. The settings on record: Table 3. Format: cell-based.

Converted amounts (≈) assume the structure as drawn.

`COC(=O)C1C(O)CC2(O)CC(O)CC(O)CC(O)CC(O)CC(=O)CC(O)CC(=O)OC(C(C)CCC(O)CC(=O)c3ccc(N)cc3)C(C)/C=C/C=C/C=C/C=C/C=C/C=C/C=C/C(O[C@H]3O[C@@H](C)[C@H](O)[C@@H](N)[C@H]3O)CC1O2` (stereo partly drawn) [partricin B methyl ester]: in assay [1] (Example 7), the “minimum growth inhibitory concentration (MIC)” value is 0.52 µg/mL. For the compound `CC1/C=C/C=C/C=C/C=C/C=C/C=C/C=C/C(O[C@H]2O[C@@H](C)[C@H](O)[C@@H](N)[C@H]2O)CC2OC(O)(CC(O)CC(O)CC(O)CC(O)CC(=O)CC(O)CC(=O)OC1C(C)CCC(O)CC(=O)c1ccc(N)cc1)CC(O)C2C(=O)O` (stereo partly drawn) [Partricin B, partricin B], the MIC in assay [2] and in assay [1] (Table 3) was 0.04 µg/mL (≈ 0.0359 µM) in each case.
